Here are results for 15 compounds from US12599676B2, “Cytotoxic imidazo[1,2-A]pyridine compounds and their use in therapy” (MyricX Pharma Limited, priority 2022, dated 2026).

The test system of data set [1] is SU-DHL-10 cell line (human B cell lymphoma). As to the kind of experiment: Cell cytotoxicity in SU-DHL-10 cell line (CellTiter-Glo). In kind it is cell-based. The note with it: 72 h treatment, CTG. The procedure:
Certain Example compounds of the invention and Comparator Compound 1 were tested in the SU-DHL-10 cell line (human B cell lymphoma). Compounds which show efficacy in this assay are expected to be useful as agents for treating or preventing hyperproliferative disorders such as cancer.
Cells were seeded in 96-well microplates and treated with compounds or cisplatin (as a positive control) at 9 increasing concentrations in technical triplicate. […] On day 1, 90 μL of various cell suspensions with the number of cells ranging from 5000-8000 cells/well were seeded into wells of a 96-well plate (Corning). The number of cells to be seeded was previously determined. • 2. All 96-wells plates with cells were placed in an incubator overnight at 37° C. with 5% CO2. • 3. On day 2, cells were observed under a microscope ensuring the cells treated with vehicle control were in good condition. • 4. A dilution series of the test compounds and cisplatin were prepared at 10× the final concentrations required. 10 μL/well of 10× compound solution was added to the corresponding plates. The final volume was 100 μL/well for all the plates. Final DMSO concentration was 0.1%. • 5. On day 5 (after 72 hours of incubation), 50 μL of CTG reagent was added to each well. • 6. Contents were mixed for 5 minutes on an orbital shaker to facilitate cell lysis. • 7. The plate was allowed to incubate at room temperature for 10 minutes to stabilize luminescent signals.
Luminescence was recorded using an EnVision Multi Label Reader. Data analysis was performed using GraphPad Prism 8.0.
To calculate IC50, a concentration-response curve was generated using a nonlinear regression model with a sigmoidal concentration response. The formula for calculating the % of viable cells was shown below, and the IC50s are automatically generated by GraphPad Prism 8.0.
(LumTest article=luminescence in test article treated well; LumNone treated=luminescence in vehicle treated well; LumMedium control=luminescence in a well containing only medium and no cells; LumNone treated-LumMedium control was set as 100%)
Background: Cellular ATP, detected with luciferase, serves as a proxy for viable cell number.

A short description of data set [2]: Caco-2 cell permeability assay. Format: in vitro ADME. The conditions noted are these: human, Caco-2, pH 7.4, basal to apical Papp, pH 7.4, 2.5 h. Here is the method: (§1) Certain Example compounds and Comparative Example 1 were tested for their apical to basal (AB) and basal to apical (BA) permeability in Caco-2 cells.
(§2) Cell Culture: Caco-2 cells were grown for 10 days in 96-well plates in HBSS buffer containing 10 mM HEPES. Both the apical and basal pH was buffered at pH 7.4. The apical/basal volumes were 75 μl and 250 μl respectively. The incubation time was 2.5 h at 37° C. (without shaking) under 5% CO2 & 95% relative humidity.
(§3) Cell Seeding: Cells were seeded at a density of 18750 cells/well (membrane area=0.0804 cm^2) in a 96 well plate.
(§4) AB Assay: 75 μl of cell suspension was added at a density 2.5×10^5 cells/ml to the apical wells. 40 ml media was added to the feeder tray. The plates were placed in the incubator (37° C., 5% CO2 and controlled humidity). The Caco-2 cells were grown for 10 days with a media change on every alternate day.
(§5) BA Assay: 25 μl of cell suspension was added at a density of 7.5×10^5 cells/ml to the bottom side (keeping the plate upside down) of apical wells. The plate (upside down position) was placed in the incubator (37° C., 5% CO2 and 95% Relative humidity) for 2 h. The plate was turned right side up. 75 μl media was added to the apical wells and 40 ml media to the feeder tray.
(§6) Permeablity Assay: The apical and basal wells were washed with buffer (pH 7.4) and 250 μl buffer was added to the wells of the basal plate. 75 μl of compound solution (2 μM, dissolved in water with 1% DMSO) was transferred to the apical wells (n=2). The apical plate was placed onto the basal plate. The lid was placed on to prevent evaporation. The assembly was incubated at 37° C. for 2.5 h (without shaking) under 5% CO2 and 95% relative humidity. After incubation the apical plate was separated from the basal plate. Aliquots were taken out from the acceptor and donor wells, diluted and quantified using LC-MS/MS along with initial donor samples.
(§7) Membrane Integrity Test: Solution in the apical wells was discarded by inverting the plate and soaking onto tissue paper. 250 μl buffer (pH 7.4) was added to each well of basal plate and 75 μl of Lucifer Yellow (LY; 0.1 mg/ml) in buffer (pH 7.4) to the wells of apical plate. The apical plate was placed onto the basal plate and the lid used to prevent evaporation. The assembly was incubated at 37° C. for 1 h (without shaking) under 5% CO2 and 95% relative humidity. The apical plate was separated from the basal plate. Fluorescence (Ex: 432 nm, Em: 530 nm) of aliquots (100 ul) was measured from basal wells. Fluorescence of 100 μl buffer (pH 7.4) and 100 μl LY(0.1 mg/ml) was also measured. Wells having more than 1% fluorescence intensity with respect to 0.1 mg/ml LY were considered non-integrated membrane. Such wells, if any, were not considered for permeability calculation.
(§8) Calculation: Drug was detected and quantified by LC-MS/MS. Data generated took the form of an apparent permeability (Papp) value. Papp=[Va/(AreaxTime)]×(LC-MS Area of Acceptor sample×Sample dilution factor/LC-MS Area of Initial Donor). Va=Volume of Acceptor Well (in ml)=0.25, Vd=Volume of Donor Well (in ml)=0.075, Area=Surface area of the membrane (cm2)=0.0804, Time=Time of incubation (sec)=9000 Results: The results of the assay are shown in Table 3 below.
(In general: Caco-2 cells form a polarised layer with tight junctions and transporters.)

Another data set has as its system Caco-2 cells. The experiment in a line: Caco-2 cell permeability assay. Format: in vitro ADME. The note with it: 2 μM, pH 7.4, 2.5 h; for Caco-2 A-B: apical to basal Papp; for Caco-2 B-A: basal to apical Papp. The procedure: as §1, §2, §3, §4, §5, §6, §7, §8

A word on the IC50: it is the point on the concentration scale where inhibition reaches its midpoint. A higher IC50 goes with a need for much substance. As a reminder, the Papp B→A is the apparent permeability from the basolateral to the apical side of a cell layer.

Each structure is given as a SMILES string.

In the case of `Cc1c(CCOc2c(-c3ccc4ncc(CN(C)C)n4c3)ccc(F)c2F)c(C(O)C(C)(C)C)nn1C` (single isomer, unassigned) [Example 15, 1-(4-(2-(6-(3-((dimethylamino)methyl)imidazo[1,2-a]pyridin-6-yl)-2,3-difluorophenoxy)ethyl)-1,5-dimethyl-1H-pyrazol-3-yl)-2,2-dimethylpropan-1-ol], the midpoint of inhibition in data set [1], the IC50, lay at 1.2 nM. Also, in data set [2], the apparent permeability from basolateral to apical (Papp B→A) at 2.5 h, 2 μM turned out to be 7.44 ×10⁻⁶ cm/s. Besides, the “Caco-2 A-B” value with Caco-2 cells is 1.345 ×10⁻⁶ cm/s.

In data set [1], `Cc1c(CCOc2cc(F)ccc2-c2ccc3ncc(CN(C)C)n3c2)c(C(C)O)nn1C` (single isomer, unassigned) [Example 3, 1-(4-(2-(2-(3-((dimethylamino)methyl)imidazo[1,2-a]pyridin-6-yl)-5-fluorophenoxy)ethyl)-1,5-dimethyl-1H-pyrazol-3-yl)ethan-1-ol] came in with an IC50 of 9.4 nM. In addition, in data set [2], the Papp B→A at 2.5 h, 2 μM came to 22.6 ×10⁻⁶ cm/s. Besides, the “Caco-2 A-B” value with Caco-2 cells was found to be 1.2 ×10⁻⁶ cm/s.

In data set [1] (Homo sapiens, SU-DHL10, 72 h), `Cc1c(CCOc2cc(F)ccc2-c2ccc3ncc(CN(C)C)n3c2)c(C(O)C(C)(C)C)nn1C` (centres unmarked) [Example 11, 1-(4-(2-(2-(3-((dimethylamino)methyl)imidazo[1,2-a]pyridin-6-yl)-5-fluorophenoxy)ethyl)-1,5-dimethyl-1H-pyrazol-3-yl)-2,2-dimethylpropan-1-ol] came in with an IC50 of 0.9 nM. In addition, in data set [2], the Papp B→A at 2.5 h, 2 μM was determined as 78 ×10⁻⁶ cm/s. For the same compound, the “Caco-2 A-B” value with Caco-2 cells amounted to 15.9 ×10⁻⁶ cm/s.

For `Cc1c(CCOc2cc(F)ccc2-c2ccc3ncc(CN(C)C)n3c2)c(C(O)C(C)C)nn1C` (centres unmarked) [Example 24, 1-(4-(2-(2-(3-((dimethylamino)methyl)imidazo[1,2-a]pyridin-6-yl)-5-fluorophenoxy)ethyl)-1,5-dimethyl-1H-pyrazol-3-yl)-2-methylpropan-1-ol], in data set [1] (Homo sapiens, SU-DHL10, 72 h), the IC50 came to 0.7 nM.

In turn, `CCNCc1cnc2ccc(-c3ccc(F)cc3OCCc3c(C(C)(C)O)nn(C)c3C)cn12` [Example 22, 2-{4-[2-(2-{3-[(ethylamino)methyl]imidazo[1,2-a]pyridin-6-yl}-5-fluorophenoxy)ethyl]-1,5-dimethyl-1H-pyrazol-3-yl}propan-2-ol] returned an IC50 in data set [1] (Homo sapiens, SU-DHL10, 72 h) of 9 nM.

In the case of `CNCc1cnc2ccc(-c3ccc(F)c(F)c3OCCc3c(C(O)C(C)(C)C)nn(C)c3C)cn12` (single isomer, unassigned) [Example 13, 1-(4-(2-(2,3-difluoro-6-(3-((methylamino)methyl)imidazo[1,2-a]pyridin-6-yl)phenoxy)ethyl)-1,5-dimethyl-1H-pyrazol-3-yl)-2,2-dimethylpropan-1-ol], in data set [1], the IC50 came to 0.7 nM.

With `Cc1c(CCOc2cc(F)ccc2-c2ccc3ncc(CN(C)C)n3c2)c(C(C)O)nn1C` (single isomer, unassigned) [Example 4, 1-(4-(2-(2-(3-((dimethylamino)methyl)imidazo[1,2-a]pyridin-6-yl)-5-fluorophenoxy)ethyl)-1,5-dimethyl-1H-pyrazol-3-yl)ethan-1-ol], 12 nM corresponded to half-maximal inhibition in data set [1] (Homo sapiens, SU-DHL10, 72 h) (IC50). In the data set with Caco-2 cells, the “Caco-2 A-B” value came out at 1.3 ×10⁻⁶ cm/s and the “Caco-2 B-A” value was 24.9 ×10⁻⁶ cm/s.

`Cc1c(CCOc2cc(F)ccc2-c2ccc3ncc(CCN)n3c2)c(C(C)(C)O)nn1C` [Example 23, 2-(4-(2-(2-(3-(2-aminoethyl)imidazo[1,2-a]pyridin-6-yl)-5-fluorophenoxy)ethyl)-1,5-dimethyl-1H-pyrazol-3-yl)propan-2-ol] registered a Papp B→A at 2.5 h, 2 μM in data set [2] of 9.7 ×10⁻⁶ cm/s. The “Caco-2 A-B” value with Caco-2 cells worked out at 0 ×10⁻⁶ cm/s.

`Cc1c(CCOc2c(-c3ccc4ncc(CN)n4c3)ccc(F)c2F)c(C(O)C(C)(C)C)nn1C` (centres unmarked) [Example 17, 1-(4-(2-(6-(3-(aminomethyl)imidazo[1,2-a]pyridin-6-yl)-2,3-difluorophenoxy)ethyl)-1,5-dimethyl-1H-pyrazol-3-yl)-2,2-dimethylpropan-1-ol] gave an IC50 in data set [1] (Homo sapiens, SU-DHL10, 72 h) of 1 nM.

Take `Cc1c(CCOc2c(-c3ccc4ncc(CN)n4c3)ccc(F)c2F)c(C(C)(C)O)nn1C` [Example 20, 2-[4-(2-{6-[3-(aminomethyl)imidazo[1,2-a]pyridin-6-yl]-2,3-difluorophenoxy}ethyl)-1,5-dimethyl-1H-pyrazol-3-yl]propan-2-ol]: the IC50 in data set [1] (Homo sapiens, SU-DHL10, 72 h) amounted to 12 nM.

`Cc1c(CCOc2c(-c3ccc4ncc(CN(C)C)n4c3)ccc(F)c2F)c(C(O)C(C)(C)C)nn1C` (single isomer, unassigned) [Example 16, 1-(4-(2-(6-(3-((dimethylamino)methyl)imidazo[1,2-a]pyridin-6-yl)-2,3-difluorophenoxy)ethyl)-1,5-dimethyl-1H-pyrazol-3-yl)-2,2-dimethylpropan-1-ol] showed an IC50 in data set [1] of 0.2 nM. For the same compound, in the data set with Caco-2 cells, the “Caco-2 A-B” value is 1.395 ×10⁻⁶ cm/s and the “Caco-2 B-A” value was 9.06 ×10⁻⁶ cm/s.

`CNCc1cnc2ccc(-c3ccc(F)cc3OCCc3c(C(O)C(C)(C)C)nn(C)c3C)cn12` (single isomer, unassigned) [Example 10, 1-(4-(2-(5-fluoro-2-(3-((methylamino)methyl)imidazo[1,2-a]pyridin-6-yl)phenoxy)ethyl)-1,5-dimethyl-1H-pyrazol-3-yl)-2,2-dimethylpropan-1-ol] displayed a 50% inhibitory concentration (IC50) in data set [1] of 2 nM. Besides, in the data set on Caco-2 cells, the “Caco-2 A-B” value was 0.305 ×10⁻⁶ cm/s and the “Caco-2 B-A” value turned out to be 8.89 ×10⁻⁶ cm/s.

Turning to `Cc1c(CCOc2cc(F)ccc2-c2ccc3ncc(CN(C)C)n3c2)c(C(C)(C)O)nn1C` [Example 19, 2-(4-(2-(2-(3-((dimethylamino)methyl)imidazo[1,2-a]pyridin-6-yl)-5-fluorophenoxy)ethyl)-1,5-dimethyl-1H-pyrazol-3-yl)propan-2-ol], the Papp B→A at 2.5 h, 2 μM in data set [2] came to 29.4 ×10⁻⁶ cm/s. The “Caco-2 A-B” value in the data set with Caco-2 cells is 3.5 ×10⁻⁶ cm/s.

As to `CNCc1cnc2ccc(-c3ccc(F)c(F)c3OCCc3c(C(O)C(C)C)nn(C)c3C)cn12` (centres unmarked) [Example 25, 1-{4-[2-(2,3-difluoro-6-{3-[(methylamino)methyl]imidazo[1,2-a]pyridin-6-yl}phenoxy)ethyl]-1,5-dimethyl-1H-pyrazol-3-yl}-2-methylpropan-1-ol], in data set [1] (Homo sapiens, SU-DHL10, 72 h), the IC50 is 1 nM.

The compound `CNCc1cnc2ccc(-c3ccc(F)cc3OCCc3c(C(O)C(C)(C)C)nn(C)c3C)cn12` (centres unmarked) [Example 8, 1-(4-(2-(5-fluoro-2-(3-((methylamino)methyl)imidazo[1,2-a]pyridin-6-yl)phenoxy)ethyl)-1,5-dimethyl-1H-pyrazol-3-yl)-2,2-dimethylpropan-1-ol] gave an IC50 in data set [1] (Homo sapiens, SU-DHL10, 72 h) of 0.7 nM.
